Laboratory results from patent publication US20250288514A1, “SKIN-SOOTHING COMPOSITION” (Amorepacific Corporation, priority 2024, published 2025).
Each block holds one compound with its values, some of them ahead of it.

Legend:
claudin-1 protein = assay: Skin cohesion evaluation: claudin-1 protein expression in artificial skin treated with inflammation cocktail; assay type: cell-based; conditions: inflammation cocktail IFN-γ (20 ng/ml)+TNF-α (20 ng/ml), compositions at 50 ppm, FIG. 2
filaggrin protein = assay: Moisturizing factor evaluation: filaggrin protein expression in artificial skin treated with inflammation cocktail; assay type: cell-based; conditions: inflammation cocktail IFN-γ (20 ng/ml)+TNF-α (20 ng/ml), compositions at 50 ppm, FIG. 3
PGE2 (Prostaglandin E2) = assay: Skin redness evaluation: amount of PGE2 in artificial skin treated with inflammatory factor; assay type: cell-based; conditions: TNF-α+IFN-γ (20 ng/ml), FIG. 4
Source text: PGE2 is a factor that induces vasodilation and causes skin redness, wherein the smaller amount of PGE2, the less vasodilation induction, thereby suppressing the skin redness, and the skin redness evaluation results are shown in FIG. 4.

[1] = Dilution of stock in medium (state of the composition); assay type: physicochemical; conditions: 50 ppm in medium, from stock in purified water or DMSO
Source text: Because PEA was suspended at the 50 ppm, this composition was not used for an experiment.

mast cell degranulation = conditions: stated as known; cited from earlier work
[2] = Cell toxicity of the composition; conditions: 50 ppm
Experimental: A composition was prepared by adding 1 g of (−)-epigallocatechin gallate 5 (EGCG) to 100 g of purified water or dimethyl sulfoxide (DMSO) to prepare a stock and diluting the stock to 50 ppm.

Compound: CCCCCCCCCCCCCCCC(=O)NCCO [Comparative Example 4, palmitoylethanolamide]
expression level of claudin-1 protein (claudin-1 protein): not recovered from the decrease in the protein expression of the claudin-1 protein
expression level of filaggrin protein (filaggrin protein): not recovered from the decrease of the protein expression

Compound: Oc1cc(O)c2c(c1)O[C@H](c1ccc(O)c(O)c1)[C@H](O)C2 [Example 3, epicatechin]
expression level of claudin-1 protein (claudin-1 protein): recovered from the decrease in the protein expression of the claudin-1 protein
amount of PGE2 (PGE2 (Prostaglandin E2)): the amount of PGE2 was suppressed
expression level of filaggrin protein (filaggrin protein): recovered from the decrease of the protein expression

state on dilution in medium [1]: suspended
Compound: CCCCCCCCCCCCCCCC(=O)NCCO [PEA, palmitoylethanolamide]
effect of suppressing the mast cell degranulation (mast cell degranulation): no effect of suppressing the mast cell degranulation

Compound: (−)-epigallocatechin gallate [Comparative Example 7]
expression level of claudin-1 protein (claudin-1 protein): not recovered from the decrease in the protein expression of the claudin-1 protein
expression level of filaggrin protein (filaggrin protein): not recovered from the decrease of the protein expression

Compound: (−)-epigallocatechin gallate [EGCG]
cell toxicity [2]: cell toxicity
